Assay [1] concerns the target human orexin-1 receptor (Homo sapiens (Human), UniProt O43613). The assay can be described thus: Intracellular calcium measurements (FLIPR), antagonism of orexin-A response. In kind it is cell-based. Conditions: CHO cells, 3 nM orexin-A, read-out: IC50 Ox1. Here is the method: (§1) In Vitro Assay: Intracellular Calcium Measurements:
(§2) Chinese hamster ovary (CHO) cells expressing the human orexin-1 receptor and the human orexin-2 receptor, respectively, are grown in culture medium (Ham F-12 with L-Glutamine) containing 300 μg/ml G418, 100 U/ml penicillin, 100 μg/ml streptomycin and 10% heat inactivated fetal calf serum (FCS). The cells are seeded at 20'000 cells/well into 384-well black clear bottom sterile plates (Greiner). The seeded plates are incubated overnight at 37° C. in 5% CO2.
(§3) Human orexin-A as an agonist is prepared as 1 mM stock solution in MeOH: water (1:1), diluted in HBSS containing 0.1% bovine serum albumin (BSA), NaHCO3: 0.375 g/l and 20 mM HEPES for use in the assay at a final concentration of 3 nM.
(§4) Antagonists are prepared as 10 mM stock solution in DMSO, then diluted in 384-well plates using DMSO followed by a transfer of the dilutions into in HBSS containing 0.1% bovine serum albumin (BSA), NaHCO3: 0.375 g/l and 20 mM HEPES. On the day of the assay, 50 μl of staining buffer (HBSS containing 1% FCS, 20 mM HEPES, NaHCO3: 0.375 g/l, 5 mM probenecid (Sigma) and 3 μM of the fluorescent calcium indicator fluo-4 AM (1 mM stock solution in DMSO, containing 10% pluronic) is added to each well. The 384-well cell-plates are incubated for 50 min at 37° C. in 5% CO2 followed by equilibration at RT for 30 min before measurement.
(§5) Within the Fluorescent Imaging Plate Reader (FLIPR Tetra, Molecular Devices), antagonists are added to the plate in a volume of 10 μl/well, incubated for 10 min or (where explicitly indicated) for 120 min and finally 10 μl/well of agonist is added. Fluorescence is measured for each well at 1 second intervals, and the height of each fluorescence peak is compared to the height of the fluorescence peak induced by 3 nM orexin-A with vehicle in place of antagonist. The IC50 value (the concentration of compound needed to inhibit 50% of the agonistic response) is determined and may be normalized using the obtained IC50 value of a on-plate reference compound. Optimized conditions were achieved by adjustment of pipetting speed and cell splitting regime. The calculated IC50 values may fluctuate depending on the daily cellular assay performance. Fluctuations of this kind are known to those skilled in the art.
(Calcium flux is commonly read through the fluorescence of an indicator in the cells.)

For assay [2], the target named is human orexin-2 receptor (Homo sapiens (Human), UniProt O43614). The description is as above. Conditions: CHO cells, 3 nM orexin-A, read-out: IC50 Ox2. Format: cell-based. Here is the method: as §1, §2, §3, §4, §5
Setting [3] is: compound incubation time of 120 min.

Data on 25 compounds can be found in patent US9000029B2, “Proline sulfonamide derivatives as orexin receptor antagonists” (Actelion Pharmaceuticals Ltd., priority 2010, dated 2015).

Each structure is given as a SMILES string. Like-named read-outs stand apart in the source and are kept apart here.

By IC50 is commonly meant the concentration that inhibits the measured activity by half.

human orexin-2 receptor, sequence (O43614 whole entry): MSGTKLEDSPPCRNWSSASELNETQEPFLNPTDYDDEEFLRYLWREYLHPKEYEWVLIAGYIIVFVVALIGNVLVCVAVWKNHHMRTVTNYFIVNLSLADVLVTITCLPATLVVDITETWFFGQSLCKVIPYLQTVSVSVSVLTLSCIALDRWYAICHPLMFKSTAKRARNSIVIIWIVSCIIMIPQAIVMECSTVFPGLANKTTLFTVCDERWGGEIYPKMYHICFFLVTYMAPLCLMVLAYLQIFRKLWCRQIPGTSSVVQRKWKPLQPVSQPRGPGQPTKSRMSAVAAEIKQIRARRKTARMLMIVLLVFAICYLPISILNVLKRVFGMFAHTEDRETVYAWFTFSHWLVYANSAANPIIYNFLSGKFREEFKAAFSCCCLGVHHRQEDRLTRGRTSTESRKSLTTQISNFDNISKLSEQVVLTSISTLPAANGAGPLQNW
human orexin-1 receptor, sequence (O43613 whole entry): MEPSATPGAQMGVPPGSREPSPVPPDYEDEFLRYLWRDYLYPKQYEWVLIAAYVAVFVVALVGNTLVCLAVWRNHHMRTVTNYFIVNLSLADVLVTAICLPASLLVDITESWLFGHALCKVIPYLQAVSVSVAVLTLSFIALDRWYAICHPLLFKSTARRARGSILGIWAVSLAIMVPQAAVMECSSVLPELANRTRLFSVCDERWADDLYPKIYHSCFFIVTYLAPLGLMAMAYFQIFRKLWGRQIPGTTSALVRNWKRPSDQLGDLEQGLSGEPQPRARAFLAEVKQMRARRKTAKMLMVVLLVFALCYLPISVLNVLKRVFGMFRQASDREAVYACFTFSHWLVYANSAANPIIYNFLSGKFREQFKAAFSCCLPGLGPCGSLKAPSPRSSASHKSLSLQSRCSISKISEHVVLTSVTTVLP

With `CSc1cccc(NC(=O)[C@@H]2CCCN2S(=O)(=O)c2ccc(C)c(Cl)c2)c1` [Example 12, (S)-1-(3-Chloro-4-methyl-benzenesulfonyl)-pyrrolidine-2-carboxylic acid (3-methylsulfanyl-phenyl)-amide], the IC50 in assay [1] (compound incubation 10 min) was found to be 5 nM; in assay [2] (compound incubation 10 min), 3 nM.
Turning to `COc1ccc(S(=O)(=O)N2CCC[C@H]2C(=O)Nc2cc(C(F)(F)F)cc(C(F)(F)F)c2)cc1` [Example 30, (S)-1-(4-Methoxy-benzenesulfonyl)-pyrrolidine-2-carboxylic acid (3,5-bis-trifluoromethyl-phenyl)-amide], the IC50 was 86 nM in assay [1] (compound incubation 10 min) and 68 nM in assay [2] (compound incubation 10 min).
Regarding `O=C(Nc1ccccc1)[C@@H]1CCCN1S(=O)(=O)c1ccc(Br)s1` [Example 15, (S)-1-(5-Bromo-thiophene-2-sulfonyl)-pyrrolidine-2-carboxylic acid phenylamide], the IC50 was 333 nM in assay [1] (compound incubation 10 min) and 164 nM in assay [2] (compound incubation 10 min).
On the same counts, the results for `CCCc1ccc(S(=O)(=O)N2CCC[C@H]2C(=O)Nc2cccc(SC)c2)cc1` [Example 4, (S)-1-(4-Propyl-benzenesulfonyl)-pyrrolidine-2-carboxylic acid (3-methylsulfanyl-phenyl)-amide] are 91 nM and 47 nM.
As for `COc1ccc(S(=O)(=O)N2CCC[C@H]2C(=O)Nc2cccc(C#N)c2)cc1` [Example 25, (S)-1-(4-Methoxy-benzenesulfonyl)-pyrrolidine-2-carboxylic acid (3-cyano-phenyl)-amide], the IC50 worked out at 994 nM in assay [1] (compound incubation 10 min) and 98 nM in assay [2] (compound incubation 10 min).
On the same counts, the results for `O=C(Nc1cccc(OC(F)(F)F)c1)[C@@H]1CCCN1S(=O)(=O)c1ccc(Br)s1` [Example 2, (S)-1-(5-Bromo-thiophene-2-sulfonyl)-pyrrolidine-2-carboxylic acid (3-trifluoromethoxy-phenyl)-amide] are 149 nM and 104 nM.
`CSc1cccc(NC(=O)[C@@H]2CCCN2S(=O)(=O)c2ccc(Cl)c(Cl)c2)c1` [Example 14, (S)-1-(3,4-Dichloro-benzenesulfonyl)-pyrrolidine-2-carboxylic acid (3-methylsulfanyl-phenyl)-amide]: the IC50 was 7 nM in assay [1] (compound incubation 10 min) and 2 nM in assay [2] (compound incubation 10 min).
The like results for `COc1ccc(S(=O)(=O)N2CCC[C@H]2C(=O)Nc2cccc(N(C)C)c2)cc1` [Example 22, (S)-1-(4-Methoxy-benzenesulfonyl)-pyrrolidine-2-carboxylic acid (3-dimethylamino-phenyl)-amide] were, in that order, 234 nM and 19 nM.
Take `Cc1cc(C)cc(NC(=O)[C@@H]2CCCN2S(=O)(=O)c2cc(C)c(Cl)cc2C)c1` [Example 55, (S)-1-(4-Chloro-2,5-dimethyl-benzenesulfonyl)-pyrrolidine-2-carboxylic acid (3,5-dimethyl-phenyl)-amide]: the IC50 in assay [1] (setting [3]) amounted to 234 nM; in assay [2] (setting [3]), 171 nM.
Take `COc1ccc(S(=O)(=O)N2CCC[C@H]2C(=O)Nc2cc(Cl)cc(Cl)c2)cc1` [Example 16, (S)-1-(4-Methoxy-benzenesulfonyl)-pyrrolidine-2-carboxylic acid (3,5-dichloro-phenyl)-amide]: the values for the IC50 in assay [1] (compound incubation 10 min) and in assay [2] (compound incubation 10 min) were 64 nM and 20 nM, respectively.
On the same counts, the results for `COc1ccc(S(=O)(=O)N2CCC[C@H]2C(=O)Nc2ccc(F)c(C)c2)cc1` [Example 37, (S)-1-(4-Methoxy-benzenesulfonyl)-pyrrolidine-2-carboxylic acid (4-fluoro-3-methyl-phenyl)-amide] are 70 nM and 28 nM.
With `Cc1cc(C)cc(NC(=O)[C@@H]2CCCN2S(=O)(=O)c2ccc(C)cc2Br)c1` [Example 52, (S)-1-(2-Bromo-4-methyl-benzenesulfonyl)-pyrrolidine-2-carboxylic acid (3,5-dimethyl-phenyl)-amide], the IC50 was found to be 89 nM in assay [1] (setting [3]) and 82 nM in assay [2] (setting [3]).
As for `Cc1cc(C)cc(NC(=O)[C@@H]2CCCN2S(=O)(=O)c2ccc(Br)cc2C)c1` [Example 57, (S)-1-(4-Bromo-2-methyl-benzenesulfonyl)-pyrrolidine-2-carboxylic acid (3,5-dimethyl-phenyl)-amide], the results for the half-inhibitory concentration (IC50) in assay [1] (setting [3]) and in assay [2] (setting [3]) were 62 nM and 22 nM, respectively.
For `COc1ccc(S(=O)(=O)N2CCC[C@H]2C(=O)Nc2cccc(SC)c2)cc1` [Example 6, (S)-1-(4-Methoxy-benzenesulfonyl)-pyrrolidine-2-carboxylic acid (3-methylsulfanyl-phenyl)-amide], the values for the IC50 in assay [1] (compound incubation 10 min) and in assay [2] (compound incubation 10 min) were 21 nM and 3 nM, respectively.
The like results for `COc1ccc(S(=O)(=O)N2CCC[C@H]2C(=O)Nc2cccc(SC)c2)cc1OC` [Example 10, (S)-1-(3,4-Dimethoxy-benzenesulfonyl)-pyrrolidine-2-carboxylic acid (3-methylsulfanyl-phenyl)-amide] were, in that order, 57 nM and 3 nM.
For `COc1cc(C)ccc1S(=O)(=O)N1CCC[C@H]1C(=O)Nc1cc(C)cc(C)c1` [Example 45, (S)-1-(2-Methoxy-4-methyl-benzenesulfonyl)-pyrrolidine-2-carboxylic acid (3,5-dimethyl-phenyl)-amide], the IC50 in assay [1] (setting [3]) turned out to be 166 nM; in assay [2] (setting [3]) it was 168 nM.
The like results for `Cc1cc(C)cc(NC(=O)[C@@H]2CCCN2S(=O)(=O)c2ccc(Br)cc2)c1` [Example 41, (S)-1-(4-Bromo-benzenesulfonyl)-pyrrolidine-2-carboxylic acid (3,5-dimethyl-phenyl)-amide] were, in that order, 79 nM and 49 nM.
In the case of `COc1ccc(S(=O)(=O)N2CCC[C@H]2C(=O)Nc2ccc(Cl)c(Cl)c2)cc1` [Example 40, (S)-1-(4-Methoxy-benzenesulfonyl)-pyrrolidine-2-carboxylic acid (3,4-dichloro-phenyl)-amide], the figures for the 50% inhibitory concentration (IC50) in assay [1] (compound incubation 10 min) and in assay [2] (compound incubation 10 min) were 130 nM and 58 nM, respectively.
Take `Cc1cc(C)cc(NC(=O)[C@@H]2CCCN2S(=O)(=O)c2ccc(S(C)(=O)=O)cc2)c1` [Example 49, (S)-1-(4-Methanesulfonyl-benzenesulfonyl)-pyrrolidine-2-carboxylic acid (3,5-dimethyl-phenyl)-amide]: the IC50 in assay [1] (setting [3]) was determined as 16 nM; in assay [2] (setting [3]) it was 197 nM.
In the case of `COc1ccc(S(=O)(=O)N2CCC[C@H]2C(=O)Nc2cccc(Cl)c2)cc1` [Example 18, (S)-1-(4-Methoxy-benzenesulfonyl)-pyrrolidine-2-carboxylic acid (3-chloro-phenyl)-amide], the IC50 in assay [1] (compound incubation 10 min) is 83 nM; in assay [2] (compound incubation 10 min) it was 31 nM.
Take `Cc1cc(C)cc(NC(=O)[C@@H]2CCCN2S(=O)(=O)c2ccc3ccccc3c2)c1` [Example 43, (S)-1-(Naphthalene-2-sulfonyl)-pyrrolidine-2-carboxylic acid (3,5-dimethyl-phenyl)-amide]: the half-inhibitory concentration (IC50) in assay [1] (setting [3]) worked out at 73 nM; in assay [2] (setting [3]), 25 nM.
For `COc1ccc(C)cc1S(=O)(=O)N1CCC[C@H]1C(=O)Nc1cc(C)cc(C)c1` [Example 48, (S)-1-(2-Methoxy-5-methyl-benzenesulfonyl)-pyrrolidine-2-carboxylic acid (3,5-dimethyl-phenyl)-amide], the IC50 was 43 nM in assay [1] (setting [3]) and 4 nM in assay [2] (setting [3]).
The like results for `Cc1cc(C)cc(NC(=O)[C@@H]2CCCN2S(=O)(=O)c2cc(C(F)(F)F)ccc2Cl)c1` [Example 50, (S)-1-(2-Chloro-5-trifluoromethyl-benzenesulfonyl)-pyrrolidine-2-carboxylic acid (3,5-dimethyl-phenyl)-amide] were, in that order, 1580 nM and 36 nM.
On the same counts, the results for `Cc1cc(C)cc(NC(=O)[C@@H]2CCCN2S(=O)(=O)c2ccc(Br)cc2Cl)c1` [Example 58, (S)-1-(4-Bromo-2-chloro-benzenesulfonyl)-pyrrolidine-2-carboxylic acid (3,5-dimethyl-phenyl)-amide] are 179 nM and 106 nM.
For the compound `COc1ccc(S(=O)(=O)N2CCC[C@H]2C(=O)Nc2ccc3c(c2)CCC3)cc1` [Example 33, (S)-1-(4-Methoxy-benzenesulfonyl)-pyrrolidine-2-carboxylic acid indan-5-ylamide], the concentration for half-maximal inhibition (IC50) was found to be 129 nM in assay [1] (compound incubation 10 min) and 12 nM in assay [2] (compound incubation 10 min).
